Key:
Assay type in all cases: cell-based
FXR1 = assay: Western blot of FXR1 levels in AraC treated THP1 cells; conditions: AraC treated surviving THP1 cells compared to untreated (1 μM AraC, FIG. 1A)
Description: (§1) THP1 cells were cultured in […] media supplemented with 10% fetal bovine serum (FBS), 2 mM L-Glutamine, 100 μg/mL streptomycin and 100 U/ml penicillin at 37° C. in 5% CO2. SS THP1 cells were prepared by washing with PBS followed by serum-starvation at a density of 2×10^5 cells/mL and AraCS cells, by treatment with indicated concentrations of AraC for indicated periods of time. THP1 (TIB-202) and MV4:11 (CRL-9591) were obtained from ATCC. MOLM13 (ACC554) were obtained from DSMZ. Cell lines kindly provided by David Scadden.
(§2) Cells were collected and resuspended in lysis buffer containing 40 mM Tris-HCl (pH 7.4), 6 mM MgCl2, 150 mM NaCl, 0.1% NP-40, 1 mM DTT, […], 17.5 mM β-glycerophosphate, 5 mM NaF and protease inhibitors. Samples containing 80 μg of protein were loaded onto 4%-20% gradient SDS-PAGE (Bio-Rad) or 16% SDS-PAGE (Invitrogen), transferred to PVDF membranes and processed for immunoblotting.
Antibodies against FXR1 (used for Western), Actin, Tubulin were from Millipore; NOLC1, DDX21, PolR1D, RPLP0, RPLP2, RPL29, RPL11, FXR1 (used for Immunoprecipitation) were from Protein Tech; PKR, P—PKR, EIF2α, P-EIF2α, GCN2 (used for immunoprecipitation) were from Cell Signaling; P-GCN2, GCN2 (used for Western) were from abcam.

PKR = assay: Western blot of phosphorylated PKR in AraC treated cells; conditions: AraC treated cells (0, 1, 5 μM AraC), normalized to total PKR
Description: Cells were collected and resuspended in lysis buffer containing 40 mM Tris-HCl (pH 7.4), 6 mM MgCl2, 150 mM NaCl, 0.1% NP-40, 1 mM DTT, 20 mM, 17.5 mM β-glycerophosphate, 5 mM NaF and protease inhibitors. Samples containing 80 μg of protein were loaded onto 4%-20% gradient SDS-PAGE (Bio-Rad) or 16% SDS-PAGE (Invitrogen), transferred to PVDF membranes and processed for immunoblotting. Antibodies against FXR1 (used for Western), Actin, Tubulin were from Millipore; NOLC1, DDX21, PolR1D, RPLP0, RPLP2, RPL29, RPL11, FXR1 (used for Immunoprecipitation) were from Protein Tech; PKR, P—PKR, EIF2α, P-EIF2α, GCN2 (used for immunoprecipitation) were from Cell Signaling; P-GCN2, GCN2 (used for Western) were from abcam.

[1] = system: 28S rRNA snoRA22 sites U4966 and U4975; assay: Low dNTP CMCT qPCR assay of rRNA pseudouridylation; conditions: AraC cells (THP1)
Description: For analysis of 2′O-methylation, RNA was prepared from indicated cells. Reverse transcription (as described above in qPCR) was performed with primers in the reverse orientation from the modification site on ribosomal RNA. Two different dNTP concentrations were used for each primer, low (0.025 mM) and high (2.5 mM). qPCR was done with the resulting cDNA using primers at forward and reverse orientation to the modified sites. Fold change in modification was calculated based on difference of Ct values in the low and high dNTP conditions. For analyzing pseudouridylation, first the RNA was treated with CMCT (1-cyclohexyl-(2-morpholinoethyl) carbodiimide metho-p-toluene sulfonate) under alkaline conditions. Rest of the experiment was done as described above for 2′O-methylation.

ATF4 = assay: Western blot of non-canonical translation target ATF4 with ISRIB; conditions: in the presence of ISRIB
Description: as §2

[2] = system: FXR1-overexpression cells; assay: Polysome analysis followed by qPCR of mRNAs, with or without ISRIB; conditions: FXR1 OE cells, 1 μM trans-ISRIB for 24 h
Description: Sucrose was dissolved in lysis buffer containing 100 mM KCl, 5 mM MgCl2, 2 mM DTT and 10 mM Tris-HCl (pH 7.4). Sucrose gradients from 10% to 55% were prepared in ultracentrifuge tubes (Beckman). Harvested cells were rinsed with ice-cold PBS and resuspended in lysis buffer with 1% Triton X-100 and 40 U/mL […] (New England Biolabs) for 20 minutes with intermittent tapping on ice. After centrifugation of cell lysates at 12,000×g for 20 minutes, supernatants were loaded onto sucrose gradients followed by ultracentrifugation (Beckman Coulter Optima L90) at 32,500×rpm at 4° C. for 80 min in the SW40 rotor. Samples were separated by density gradient fractionation system (Biocomp Piston Gradient Fractionation). RNAs were purified by using TRIzol (Invitrogen) from heavy polysome fractions and whole cell lysates. The synthesized cDNA probes from WT Expression Kit (Ambion) were hybridized to Gene Chip Human Transcriptome Array 2.0 (Affymetrix) and analyzed by the Partners Healthcare Center for Personalized Genetic Medicine Microarray and BUMC facilities. Gene ontology analysis for differentially expressed translatome or proteome was conducted by DAVID 6.7 tools. Molecular signatures enriched in FXR1 OE and Control cells were identified by Gene Set Enrichment Analysis (GSEA).
Total RNA was isolated using TRIzol (Invitrogen) according to the manufacturer's instructions. […]

FXR1 OE cells (THP1) = assay: Chemosurvival (fraction of cell viability) of FXR1 OE cells treated with AraC plus inhibitor
Description: as §1
THP1 FXR1 OE cell lines were created by infecting cells with an FXR1 containing retroviral vector for constitutive over expression of FXR1. Corresponding control cell lines were made by infection with empty vector.
(§3) Cytarabine (AraC), Trans-ISRIB, FX-1, and Toyocamycin were obtained from Cayman Chemicals. For polysome analysis, FXR1 OE and control cells were treated with 1 μM trans-ISRIB for 24 h. For cell viability FXR1 OE and control cells were treated individually or with a combination of 5 μM AraC and 1 μM trans-ISRIB for 24 h; 100 nM Toyocamycin and 1 μM AraC; 10 μM FX-1 and 5 μM AraC.

G0 cells (THP1) = assay: Chemosurvival of G0 cells treated with ISRIB and AraC; conditions: ISRIB and AraC (FIG. 4H)
Description: as §1, §3

Nc1ccn([C@@H]2O[C@H](CO)[C@@H](O)[C@@H]2O)c(=O)n1 [AraC, Cytarabine]
FXR1 protein level (FXR1): increases | phosphorylation and activation of PKR (PKR): increased phosphorylation and activation | rRNA pseudouridylation at snoRA22 sites on 28S at U4966 and U4975 [1]: increases

O=C(COc1ccc(Cl)cc1)NC1CCC(NC(=O)COc2ccc(Cl)cc2)CC1 (stereo not drawn) [ISRIB]
level of known non-canonical targets such as ATF4 (ATF4): decrease | polysome association of mRNAs that are upregulated in FXR1-overexpressing cells [2]: reduced polysome association | polysome association of other genes like vinculin [2]: without affecting | chemosurvival (FXR1 OE cells (THP1); FXR1 OE cells, 1 μM trans-ISRIB combined with 5 μM AraC, 24 h, compared to buffer and AraC): reduced chemosurvival | chemosurvival (G0 cells (THP1)): reduced chemosurvival

N#Cc1cn([C@@H]2O[C@H](CO)[C@@H](O)[C@H]2O)c2ncnc(N)c12 [Toyocamycin]
chemosurvival (FXR1 OE cells (THP1); 100 nM Toyocamycin and 1 μM AraC, FXR1 OE and control cells (FIG. 4I)): decreased
